Results taken from patent US7989466B2, “Methods to inhibit or augment an inflammatory response” (Cambridge Enterprise Limited, priority 1999, dated 2011).
Positions of bridges follow the written chain, without caps; N, C: chain ends. Non-standard residues stand in square brackets, D forms with d. Residues, ends and D or L forms follow the SMILES beside them.

Legend:
[1] = test system: lung CD3, CD4, B220 cells; experiment: Lung cell number and type in normal mice; assay type: in vivo, mouse; settings: high dose, all routes of administration, versus PBS controls
Procedure: To determine whether increasing doses of CRD-Leu4Ile11Cys13 peptide 3(3-12)[MCP-1] alters the cell number and type of cell within the lungs of normal mice, mice were injected intravenously, intravenously and intratracheally, or intratracheally alone with CRD-Leu4Ile11Cys13 peptide 3(3-12)[MCP-1]. Mice were sacrificed at 20-24 hours post injection. Lungs were collected for isolation of cells, which were subsequently counted and characterized by surface staining for CD3, CD4, CD8, B220, and Mac-1.

[2] = Plasma concentration after a single intraperitoneal dose; assay type: in vivo; settings: ip, 24 hours after a single intraperitoneal dose of 1 mg in 250 μL saline
Procedure: For example, to prepare a peptide 3 derivative, peptide 3(3-12)[MCP-1] was modified according to Jameson et al. (Nature, 368, 744 (1994)), which yielded CRD-Cys13Leu4Ile11peptide 3(3-12)[MCP-1] (FIG. 3). CRD-Cys13Leu4Ile11peptide 3(3-12)[MCP-1], which had very similar properties to peptide 3(1-12)[MCP-1] […] CRD-Cys13Leu4Ile11peptide 3(3-12)[MCP-1] was also resistant to hydrolysis in vivo and allowed therapeutically useful plasma concentrations to be achieved (>10 μM 24 hours after a single intraperitoneal dose of 1 mg of CRD-Cys13Leu4Ile11peptide 3(3-12)[MCP-1] in 250 μL saline).

[3] = test system: RANTES induced THP-1 migration; experiment: THP-1 trans-well migration assay, RANTES as chemoattractant; assay type: cell-based, human; settings: Homo sapiens, THP-1; read-out: ED50, RANTES chemotaxis assay
Procedure: To determine whether an agent inhibits a chemokine-induced activity, such as macrophage recruitment, varying amounts of the agent are mixed with cells in the presence of a known chemoattractant. For example, a range of known concentrations of an agent, e.g., a chemokine peptide, is incubated with a defined number (e.g., 10^4-10^6) of human THP-1 monocyte cells in individual wells of the top compartment of a trans-well plate. Chemokine (such as MCP-1, MIP1α, IL8 or SDF-1α), at a concentration known to cause significant migration of THP-1 cells in the trans-well migration assay, is placed in the lower compartment (FIG. 1). […] A standard curve consisting of a two-fold dilution series of THP-1 cells (in 29 μl) is prepared to accurately quantify the number of cells that have migrated. […] Absorbance of converted dye is measured at a wavelength of 595 nm using an ELISA plate reader. The number of migrated cells in each well is then determined by interpolation of the standard curve (see also Imai et al., J. Biol. Chem., 272, 15036 (1997)). […]
After incubation, the cells were gently removed from the top of the filter with a pipette, 20 μl of 20 mM EDTA in PBS was added into each top well, and the mixture was incubated for 20 minutes at 4° C. […] A standard curve was prepared to accurately quantify the number of THP-1 cells that had migrated. […]

[4] = biological target: T1, 5-HT1a receptors (Homo sapiens, UniProt P08908); experiment: 5HT1a serotonin receptor membrane binding (3H-8-OH-DPAT)
T1 construct: purchased RBI/Sigma S-160
T1 sequence (P08908 whole entry): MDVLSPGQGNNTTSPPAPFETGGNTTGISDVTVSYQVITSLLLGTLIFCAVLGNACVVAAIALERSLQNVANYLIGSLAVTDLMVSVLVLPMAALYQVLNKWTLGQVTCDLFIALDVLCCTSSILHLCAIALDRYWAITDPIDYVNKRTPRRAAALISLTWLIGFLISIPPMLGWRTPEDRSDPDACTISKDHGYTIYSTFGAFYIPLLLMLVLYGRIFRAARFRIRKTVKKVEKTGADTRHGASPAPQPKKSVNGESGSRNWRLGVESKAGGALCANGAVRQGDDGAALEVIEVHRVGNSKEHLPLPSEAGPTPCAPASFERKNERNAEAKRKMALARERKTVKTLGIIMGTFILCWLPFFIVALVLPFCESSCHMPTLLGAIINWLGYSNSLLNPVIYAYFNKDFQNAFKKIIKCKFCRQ
Procedure: For 5HT1a serotonin receptors, membranes (S-160, RBI/Sigma) are diluted into binding buffer (50 mM Tris pH 7.4 10 mM MgCl2 and 0.5 mM EDTA, with ascorbate at 1 mg/ml added immediately before use), e.g., 10 μl of membranes in 500 μl assay volume (i.e., 1:50 dilution). Cold competitor or test competitor is then added, e.g., 5 μl of 100× stock solution such as 5 μl of 1 mM oxymetazoline. […] The tubes are vortexed then spun briefly. The mixtures are incubated for 1 hour at 4° C. The mixtures are filtered through GF/C filters pre-soaked in polyethyleneimine (0.3% in MilliQ water). The tubes are washed with 2-3 ml of wash buffer and filtered. The filter is washed with 3×5 ml of wash buffer, and air dried. 4.5 ml of scintillant is added to the dried filter in a scintillation vial and the filter counted on a tritium channel.

With `CC[C@@H](C)[C@H]1NC(=O)[C@@H](CCC(N)=O)NC(=O)[C@H](N)CSSC[C@H](C(N)=O)NC(=O)[C@@H](CC(C)C)NC(=O)[C@@H](CC(=O)O)NC(=O)[C@H]2CCCN2C(=O)[C@@H](CCCCN)NC(=O)[C@@H](CCC(N)=O)NC(=O)[C@@H](CCCCN)NC(=O)[C@@H](Cc2c[nH]c3ccccc23)NC1=O` (H-[dC][dQ][dI][dW][dK][dQ][dK][dP][dD][dL][dC]-NH2; disulfide 1-11; N-terminus assumed) the “percentages of CD3, CD4 and B220 cells in lungs of normal mice” value [1] was “significantly reduced” and the level at time molar at 24 h [2] was > 10 µM.
In the case of `C=CCCCCCCCCC(=O)N[C@H]1CCC(=O)NC1=O` [A-I (NR58.4), [3S]-3-(undec-10-enoylamino)piperidine-2,6-dione], the EC50 [3] is reported as 0.3 nM, the “selectivity for MCP-1 inhibition over serotonin receptor binding” value [4] is reported as “approximately 40,000 fold” and the EC50 ([4]; 100 μM highest concentration tested) is reported as 80 µM.
